Data set [1] has as its system HGSOC PDX, OVCAR3, Ep-Myc, MOLM-13, TH-MYC, MDA-MB-231, Renca, LL/2 models. The data set can be described thus: In vivo efficacy of SRA737 as a single agent. Also on record: species or system mouse. The protocol: A program of in vivo efficacy studies was performed to assess the activity of SRA737 in combination with genotoxic chemotherapy and targeted agents, and as monotherapy.
One of these models also carried a MYCN amplification. A fourth HGSOC PDX model with partial resistance to PARPi was also sensitive to high dose SRA737 monotherapy.

For another data set, the system named is human hepatocytes. Nature of the data set: Stability and metabolites in cryopreserved hepatocytes, human. Format: in vitro ADME. As to conditions: 10 μM, up to 4 hours. The protocol:
The formation of SRA737-related metabolites was determined in cryopreserved hepatocytes from human, mouse, rat, dog, minipig and monkey samples after incubation with SRA737 at a nominal concentration of 10 μM for up to 4 hours. […] In the human hepatocyte preparation, approximately 67% of the parent remained after 4 hours of incubation compared to 75% and 7% in the rat and minipig preparations, respectively. Eight human SRA737 metabolites were observed. All SRA737 metabolites formed by human hepatocytes were also formed by monkey hepatocytes. Six metabolites were present at equal or greater abundance in the monkey.

The nature of data set [2]: Excretion of SRA737 in rats. Format: in vivo. The following applies: rat; over 24 hours. The protocol:
The excretion of SRA737 has been studied in mice and rats administered SRA737 at either 5 mg/kg IV or 10 mg/kg orally. Urine and feces were collected for a 24-hour period after dosing. In mice, renal excretion of intact SRA737 was consistently low (less than 10% of dose) after both oral and IV administration. Following IV administration of SRA737, less than 8% of the dose was recovered as intact drug in the feces while after oral administration this figure was less than 3%. Excretion of intact SRA737 was lower in the rat than in the mouse with <1% of dose excreted renally over 24 hours and less than 1.5% of dose excreted into the feces over 24 hours.

Data set [3] in a line: Phase 1 clinical study, SRA737 monotherapy dose escalation. As to conditions: human, in vivo. The protocol: A Phase 1 clinical trial was conducted in ‘all comers,’ i.e. no genetic selection was performed, to establish safety, tolerability and pharmacokinetics (“Dose Escalation Phase”). Cohorts consisting initially of a single subject received escalating doses of SRA737, starting in Cohort 1 with 20 mg/day administered orally on a continuous daily dosing schedule in 28 day cycles. the dose was escalated until the maximum tolerated dose (MTD) was identified.
In the Dose Escalation Phase, 18 subjects received SRA737 in 9 dose level cohorts, from 20 to 1300 mg QD; median treatment duration 62.5 days (range 1 to 226). […] Two of 3 subjects experienced DLTs at the 1300 mg once daily dose, each being an inability to receive 75% of the planned SRA737 dose due to GI intolerability, with the individual GI effects being low grade. […] A cohort receiving 500 mg twice daily was added to determine if a twice daily dosing schedule can improve GI tolerability, given the half-life of SRA737 is approximately 10 hours. One of 6 subjects experienced DLTs in the 500 mg twice daily cohort; this was an inability to receive 75% of the planned SRA737 dose due to grade 4 thrombocytopenia with grade 3 neutropenia and anemia.

For another data set, the system named is SCLC cell lines. The data set can be described thus: CellTiter-Glo cell viability assay, SCLC cell line panel. Format: cell-based, human and murine. As to conditions: 96 h. The protocol: SCLC cell lines were incubated with dimethyl sulfoxide (vehicle control), SRA737 or Gemcitabine for 96 hours at nine distinct concentrations, with the maximum dose being 10 μM. A CellTiter-Glo luminescent cell viability assay (Promega) was performed after 96 hours of treatment as per the manufacturer's specifications. IC50 values were estimated using Drexplorer, as previously described (Tong P, Coombes K R, Johnson F M, Byers L A, Diao L, Liu D D, Lee J J, Heymach J V, Wang J. drexplorer: A tool to explore dose-response relationships and drug-drug interactions. Bioinformatics. 2015 May 15; 31(10):1692-4.)
To investigate the in vitro activity of SRA737, a panel of 51 SCLC cell lines, including one murine derived model, and a panel of NSCLC, pancreatic, colon and bladder cancer cell lines were screened.

The subject of the next data set is SW1990. The data set can be described thus: Cell viability, pancreatic cancer line SW1990. Type of data set: cell-based. The following applies: Homo sapiens.
A further data set has as its system SNU-C1. Nature of the data set: Cell viability, colon cancer line SNU-C1. Format: cell-based. As to conditions: Homo sapiens.
In a further data set the test system is STING pathway. The data set can be described thus: Immunoblot of STING pathway proteins in resected RPP tumors. Format: in vivo, mouse. As to conditions: RPP tumors resected at Day 21. The protocol:
Western blot analysis was performed using SDS-PAGE followed by transfer to nitrocellulose membrane using the BioRad Gel system. Membranes were incubated in the following primary antibodies (1:1000) overnight: PD-L1 (CST), total and phospho- (S366) STING (CST), total and phospho- (S396) IRF3 (CST), phospho-YH2AX (CST) and Actin (Sigma). Secondary anti-rabbit, HRP-linked antibodies were purchased from Cell Signaling Biosciences and detected using the Chemidoc imaging system mage-captured with Image Studio Version 3.1 software.

Another data set relates to CXCL10 and CCL5. The data set can be described thus: qPCR of CXCL10 and CCL5 in MC38 tumors. Format: in vivo, mouse. The text has this: FIGS. 23A-D show the qPCR measurement of CXCL10 and CCL5 mRNA expression in MBT-2 (FIG. 23A and FIG. 23B) and MC38 (FIG. 23C and FIG. 23D) tumors resected after 7 or 14 days of treatment with SRA737 5/7 days. Data presented as mean±SD and p values by t-test * p<0.05, **p<0.01, ***p<0.001.
Real-time PCR was done using SYBR Select Master Mix (Life Technologies, cat #4472908) according to the manufacturer's protocol. Primers were purchased from Sigma Aldrich, Inc. Triplicate PCR reactions were run on ABI (7500 Fast Real Time PCR System). The comparative Ct method using the average 2ΔΔCT value for each set of triplicates was used, and the average of the biological replicates was calculated. Negative controls were included for every primer set, and GAPDH was used as the […].
The flank of immunocompetent mice was then treated with SRA737 monotherapy for 5-days-on/2-days-off for either one or two cycles and the expression of CCL5 and CXCL10 in extracted tumors were analyzed. […] The previously used dosing regimen of 5-days-on/2-days-off was modified to a schedule of 7-days-on/7-days-off for SRA737 treatment with or without co-treatment with anti-PD1 (Days 3, 7 and 11) based on the results of induction of chemokines secretion after 7 days.

In the next data set the target is T1, Chk1 (Homo sapiens, UniProt O14757).
T1 construct: endogenous in cells
T1 sequence (O14757 whole entry, species assumed): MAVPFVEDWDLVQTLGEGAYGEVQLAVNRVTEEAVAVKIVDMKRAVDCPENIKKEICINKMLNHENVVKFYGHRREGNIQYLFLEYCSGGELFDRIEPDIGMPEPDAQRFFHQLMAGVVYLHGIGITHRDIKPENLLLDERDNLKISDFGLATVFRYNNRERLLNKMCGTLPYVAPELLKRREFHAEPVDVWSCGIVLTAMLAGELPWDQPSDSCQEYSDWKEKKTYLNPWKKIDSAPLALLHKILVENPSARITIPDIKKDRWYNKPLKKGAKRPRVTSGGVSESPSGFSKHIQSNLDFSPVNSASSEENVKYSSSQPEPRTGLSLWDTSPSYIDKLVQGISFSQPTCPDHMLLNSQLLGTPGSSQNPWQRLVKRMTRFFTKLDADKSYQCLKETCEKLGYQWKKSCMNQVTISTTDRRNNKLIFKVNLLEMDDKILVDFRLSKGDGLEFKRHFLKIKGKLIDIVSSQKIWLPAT
As to conditions: previously found; Walton et al.; cited from earlier work.

pIC50: −log10 of the molar value.

In the case of `N#Cc1cnc(Nc2cc(NCC3CNCCO3)c(C(F)(F)F)cn2)cn1` (stereo not drawn) [SRA737, 5-[[4-[[morpholin-2-yl]methylamino]-5-(trifluoromethyl)-2-pyridyl]amino]pyrazine-2-carbonitrile], the “sensitivity to high dose monotherapy” value in data set [1] (fourth HGSOC PDX model with partial resistance to PARPi) is “sensitive”. Also, the “antitumor activity as a single agent” value in data set [1] (several HGSOC PDX models with CCNE1 amplifications and TP53 mutations, data not shown) is listed as “Significant antitumor activity”. Also, the “human SRA737 metabolites observed” value with human hepatocytes was “Eight”. Further, the “dose excreted into the feces” value in data set [2] is given as “less than 1.5 % of dose”. Also, the dose excreted renally in data set [2] is < 1 % of dose. Also, in data set [3], the “doses that exceeded the level effective in preclinical models” value was at least 300 mg. Further, the T1/2 in data set [3] (800 mg) is reported as 10.3 h. In addition, the pIC50 (commonly the negative decadic logarithm of the IC50, by convention in mol/L) is below 5.30 with SCLC cell lines (SCLC cell lines classified resistant (n=35)), above 5.30 in the data set on SCLC cell lines (SCLC cell lines classified sensitive (n=15)), 6.15 with SW1990 and 5.89 with SNU-C1. Further, the “STING pathway incl. pSTING_S366, pTBK1_S172, cGAS, pIRF3_S396 in tumors” value in the data set on STING pathway was “significant activation of the STING pathway”. In addition, in the data set on CXCL10 and CCL5 (after 7 days), the “expression of CCL5” value was “modestly but not statistically significantly reduced”. The CXCL10 levels entry in the data set on CXCL10 and CCL5 (after 14 days, p<0.05) is “significantly increased”. The “off-target activity against other kinases” value on Chk1 is given as “limited off-target activity against other kinases”.

The record behind these values is patent US20220184091A1, “Methods of Treating Cancer with Chk1 Inhibitors” (Sierra Oncology, Inc., priority 2019, published 2022).
